# Data from patent US10660877B2 (BRISTOL-MYERS SQUIBB COMPANY, priority 2016, dated 2020).
# Where two headings read alike, the source gives them in different places.
# Legend:
# human TLR9 = human TLR9 (Homo sapiens (Human), UniProt Q9NR96); assay: TLR9 inhibition reporter assay (HEK-Blue cells, SEAP reporter, ODN2006 stimulation);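 also: compounds tested over 0.05 nM to 50 µM, 22 h incubation, inhibition taken as SEAP signal drop from agonist plus DMSO wells toward a known inhibitor control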
# human TLR7 = human TLR7 (Homo sapiens (Human), UniProt Q9NYK1); assay: TLR7 inhibition reporter assay (HEK-Blue cells, SEAP reporter, gardiquimod stimulation); format: cell-based
# Chain of human TLR7 (Q9NYK1 27-1049): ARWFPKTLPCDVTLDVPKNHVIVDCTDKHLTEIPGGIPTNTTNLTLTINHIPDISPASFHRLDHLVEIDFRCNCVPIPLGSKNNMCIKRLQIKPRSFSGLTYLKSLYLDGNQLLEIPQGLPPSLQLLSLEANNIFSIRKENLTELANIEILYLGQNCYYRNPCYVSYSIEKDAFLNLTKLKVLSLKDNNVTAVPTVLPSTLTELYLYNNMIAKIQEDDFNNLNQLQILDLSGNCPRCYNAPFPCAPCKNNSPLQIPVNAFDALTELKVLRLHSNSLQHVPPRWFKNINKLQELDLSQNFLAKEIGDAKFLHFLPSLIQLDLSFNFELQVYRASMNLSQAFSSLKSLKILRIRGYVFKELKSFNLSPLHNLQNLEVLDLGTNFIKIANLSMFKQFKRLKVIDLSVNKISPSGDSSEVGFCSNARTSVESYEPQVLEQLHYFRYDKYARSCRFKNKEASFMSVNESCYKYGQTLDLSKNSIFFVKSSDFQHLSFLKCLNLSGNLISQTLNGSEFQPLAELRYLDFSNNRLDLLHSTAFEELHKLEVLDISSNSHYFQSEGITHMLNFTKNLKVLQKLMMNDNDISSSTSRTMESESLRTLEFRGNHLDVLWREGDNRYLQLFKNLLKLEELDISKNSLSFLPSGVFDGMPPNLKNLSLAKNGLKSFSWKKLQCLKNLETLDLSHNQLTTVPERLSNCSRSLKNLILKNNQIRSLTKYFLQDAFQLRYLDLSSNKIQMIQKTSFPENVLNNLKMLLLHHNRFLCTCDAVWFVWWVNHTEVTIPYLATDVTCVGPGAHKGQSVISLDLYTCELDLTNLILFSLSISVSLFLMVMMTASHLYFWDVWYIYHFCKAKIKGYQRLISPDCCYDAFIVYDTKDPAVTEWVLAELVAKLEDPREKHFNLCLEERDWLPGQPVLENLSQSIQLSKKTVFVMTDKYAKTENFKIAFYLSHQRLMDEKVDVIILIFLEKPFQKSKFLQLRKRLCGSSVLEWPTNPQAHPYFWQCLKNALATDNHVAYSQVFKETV
# human TLR8 = human TLR8 (Homo sapiens (Human), UniProt Q9NR97); assay: TLR8 inhibition reporter assay (HEK-Blue cells, SEAP reporter, R848 stimulation);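 also: compounds tested from 0.05 nM to 50 µM, 22 h at 37 °C, SEAP measured with HEK-Blue Detection, inhibition relative to agonist plus DMSO versus a known inhibitor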
# Chain of human TLR8 (Q9NR97 27-1041): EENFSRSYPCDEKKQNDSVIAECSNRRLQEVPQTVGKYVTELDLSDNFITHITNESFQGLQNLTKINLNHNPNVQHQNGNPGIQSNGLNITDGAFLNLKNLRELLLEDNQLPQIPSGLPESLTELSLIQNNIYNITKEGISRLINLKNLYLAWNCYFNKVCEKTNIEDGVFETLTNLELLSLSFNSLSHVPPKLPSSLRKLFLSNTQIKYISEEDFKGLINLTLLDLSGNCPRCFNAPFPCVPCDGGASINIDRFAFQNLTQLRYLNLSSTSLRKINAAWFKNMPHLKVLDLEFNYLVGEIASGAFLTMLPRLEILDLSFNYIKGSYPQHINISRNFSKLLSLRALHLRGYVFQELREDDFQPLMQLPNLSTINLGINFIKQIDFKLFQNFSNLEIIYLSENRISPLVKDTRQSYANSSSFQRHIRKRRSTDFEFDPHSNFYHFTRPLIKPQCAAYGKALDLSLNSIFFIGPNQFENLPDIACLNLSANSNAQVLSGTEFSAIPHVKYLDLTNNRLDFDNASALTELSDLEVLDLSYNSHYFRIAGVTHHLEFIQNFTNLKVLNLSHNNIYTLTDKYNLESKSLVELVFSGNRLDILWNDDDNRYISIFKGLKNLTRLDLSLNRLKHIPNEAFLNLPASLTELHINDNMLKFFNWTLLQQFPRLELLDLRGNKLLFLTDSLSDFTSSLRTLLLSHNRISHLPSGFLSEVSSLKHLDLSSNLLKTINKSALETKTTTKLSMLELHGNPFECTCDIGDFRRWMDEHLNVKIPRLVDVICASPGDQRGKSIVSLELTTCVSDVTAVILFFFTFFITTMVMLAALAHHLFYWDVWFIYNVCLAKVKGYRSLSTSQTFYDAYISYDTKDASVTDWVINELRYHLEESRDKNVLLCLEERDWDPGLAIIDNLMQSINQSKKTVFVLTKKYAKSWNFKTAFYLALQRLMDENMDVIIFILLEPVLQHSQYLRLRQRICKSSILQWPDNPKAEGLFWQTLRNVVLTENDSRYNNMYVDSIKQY
# [1] = read-out: TLR9 IC50, HEK-Blue cells overexpressing human TLR9, ODN2006 5 nM
# [2] = HEK-Blue cells overexpressing human TLR7, gardiquimod 7.5 μM
# [3] = read-out: TLR8 IC50, HEK-Blue cells overexpressing human TLR8, R848 15.9 μM
# [4] = TLR9 IC50, HEK-Blue cells overexpressing human TLR9, ODN2006 5 nM
# [5] = TLR8 IC50, HEK-Blue cells overexpressing human TLR8, R848 15.9 μM
# Chain of human TLR9 (Q9NR96 26-1032): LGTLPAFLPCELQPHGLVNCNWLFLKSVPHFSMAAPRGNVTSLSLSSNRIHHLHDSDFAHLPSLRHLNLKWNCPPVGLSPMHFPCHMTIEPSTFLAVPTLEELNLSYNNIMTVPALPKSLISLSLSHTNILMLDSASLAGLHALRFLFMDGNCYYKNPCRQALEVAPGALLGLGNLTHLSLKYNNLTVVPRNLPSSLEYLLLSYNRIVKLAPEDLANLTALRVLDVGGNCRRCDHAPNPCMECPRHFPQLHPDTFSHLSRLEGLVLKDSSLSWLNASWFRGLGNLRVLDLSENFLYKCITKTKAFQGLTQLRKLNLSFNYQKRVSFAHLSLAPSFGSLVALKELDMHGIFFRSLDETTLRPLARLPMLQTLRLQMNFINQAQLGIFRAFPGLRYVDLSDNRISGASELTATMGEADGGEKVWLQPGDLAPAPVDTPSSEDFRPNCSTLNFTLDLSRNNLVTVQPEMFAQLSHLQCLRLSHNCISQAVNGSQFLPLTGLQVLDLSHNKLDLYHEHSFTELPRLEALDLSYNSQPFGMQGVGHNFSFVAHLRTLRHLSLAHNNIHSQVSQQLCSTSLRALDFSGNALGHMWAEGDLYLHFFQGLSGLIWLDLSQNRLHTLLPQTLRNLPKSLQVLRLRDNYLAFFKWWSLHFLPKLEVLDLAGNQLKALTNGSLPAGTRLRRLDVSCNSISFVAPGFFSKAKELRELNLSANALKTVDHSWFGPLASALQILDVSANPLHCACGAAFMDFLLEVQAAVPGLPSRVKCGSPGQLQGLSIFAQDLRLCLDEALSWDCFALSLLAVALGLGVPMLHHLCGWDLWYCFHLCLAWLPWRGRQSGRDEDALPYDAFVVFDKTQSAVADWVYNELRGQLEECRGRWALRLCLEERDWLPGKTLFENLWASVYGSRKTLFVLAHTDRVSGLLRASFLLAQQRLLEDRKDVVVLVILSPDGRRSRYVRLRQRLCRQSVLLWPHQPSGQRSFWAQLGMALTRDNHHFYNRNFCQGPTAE
SMILES,IC50 (human TLR9; [1]) [nM],IC50 (human TLR7; [2]) [nM],IC50 (human TLR8; [3]) [nM],"IC50 (human TLR9; read-out: TLR9 IC50, HEK-Blue cells, ODN2006 5 nM) [nM]","IC50 (human TLR7; HEK-Blue cells, gardiquimod 7.5 μM) [nM]","IC50 (human TLR8; read-out: TLR8 IC50, HEK-Blue cells, R848 15.9 μM) [nM]",IC50 (human TLR9; [4]) [nM],IC50 (human TLR8; [5]) [nM]
"CCc1c(-c2ccnc(C)c2)[nH]c2ccc(C3CCN(C(=O)[C@H]4CC(F)(F)CN4)CC3)cc12 [Example 623, (R)-(4,4-difluoropyrrolidin-2-yl)(4-(3-ethyl-2-(2-methylpyridin-4-yl)-1H-indol-5-yl)piperidin-1-yl)methanone]",14500,201,226,–,–,–,–,–
"CCc1c(-c2ccnc(OC)c2)[nH]c2ccc(C3CCN(C4C[C@H]5CC[C@@H](C4)N5C)CC3)cc12 (stereo partly drawn) [Example 791, 3-ethyl-2-(2-methoxypyridin-4-yl)-5-(1-((1R,3s,5S)-8-methyl-8-azabicyclo[3.2.1]octan-3-yl)piperidin-4-yl)-1H-indole]",1600,666,158,–,–,–,–,–
"COc1ncc(CN2CCC(c3ccc4[nH]c(-c5cc(C)ncc5F)c(C(C)C)c4c3)CC2)cn1 [Example 733, 2-(5-fluoro-2-methylpyridin-4-yl)-3-isopropyl-5-(1-((2-methoxypyrimidin-5-yl)methyl)piperidin-4-yl)-1H-indole]",1810,11.1,4.2,–,–,–,–,–
"Cc1cc(-c2[nH]c3ccc(C4CCN(CC5CCCCC5)CC4)cc3c2C(C)C)cc(C)n1 [Example 328, 5-(1-(cyclohexylmethyl)piperidin-4-yl)-2-(2,6-dimethylpyridin-4-yl)-3-isopropyl-1H-indole]",7220,49.8,77.1,–,–,–,–,–
"Cc1cc(-c2[nH]c3ccc(C4CCNCC4)cc3c2CC(F)F)cc(C)n1 [Example 492, 3-(2,2-difluoroethyl)-2-(2,6-dimethylpyridin-4-yl)-5-(piperidin-4-yl)-1H-indole]",539,15.8,54.1,–,–,–,–,–
"CCOCCNCC(=O)N1CCC(c2ccc3[nH]c(-c4cc(C)nc(C)c4)c(C(C)C)c3c2)CC1 [Example 349, 1-(4-(2-(2,6-dimethylpyridin-4-yl)-3-isopropyl-1H-indol-5-yl)piperidin-1-yl)-2-((2-ethoxyethyl)amino)ethan-1-one]",1360,5.2,21.9,–,–,–,–,–
"Cc1cc(-c2[nH]c3ccc(C4CCN(Cc5ncon5)CC4)cc3c2C(C)C)cc(C)n1 [Example 463, 3-((4-(2-(2,6-dimethylpyridin-4-yl)-3-isopropyl-1H-indol-5-yl)piperidin-1-yl)methyl)-1,2,4-oxadiazole]",3360,8.3,17.7,–,–,–,–,–
"Cc1nccc(-c2[nH]c3ccc(C4CCN(CC(=O)N(C)C)CC4)cc3c2C(C)C)c1F [Example 648, 2-(4-(2-(3-fluoro-2-methylpyridin-4-yl)-3-isopropyl-1H-indol-5-yl)piperidin-1-yl)-N,N-dimethylacetamide]",2240,3,3.7,–,–,–,–,–
"Cc1cc(-c2[nH]c3ccc(C4CCN(C(=O)CNS(C)(=O)=O)CC4)cc3c2C(C)C)cc(C)n1 [Example 150, N-(2-(4-(2-(2,6-dimethylpyridin-4-yl)-3-isopropyl-1H-indol-5-yl)piperidin-1-yl)-2-oxoethyl) methanesulfonamide]",53100,7.3,71.6,–,–,–,–,–
"Cc1cc(-c2[nH]c3ccc(C4CCN(C5CCN(C(C)C)CC5)CC4)cc3c2C)cc(C)n1 [Example 813, 2-(2,6-dimethylpyridin-4-yl)-5-(1′-isopropyl-[1,4′-bipiperidin]-4-yl)-3-methyl-1H-indole]",–,–,–,42,533,114,–,–
"CCc1c(-c2ccnc(Cl)c2)[nH]c2ccc(C3CCNCC3)cc12 [Example 62, 2-(2-chloropyridin-4-yl)-3-ethyl-5-(piperidin-4-yl)-1H-indole]",2100,22,19.4,–,–,–,–,–
"Cc1cc(-c2[nH]c3ccc(C4CCN(C(=O)C5CCNC5)CC4)cc3c2C(C)C)cc(C)n1 (single isomer, unassigned) [Example 182, (4-(2-(2,6-dimethylpyridin-4-yl)-3-isopropyl-1H-indol-5-yl)piperidin-1-yl)(pyrrolidin-3-yl) methanone]",–,1.3,–,–,–,–,151,12
CCc1c(-c2ccnc(C)c2)[nH]c2ccc(C3CCN(C(=O)[C@@H]4CCCN4)CC3)cc12 [Example 629],–,60.4,–,–,–,–,482,18.7
"CCC(=O)N1CCC(c2ccc3[nH]c(-c4cc(C)nc(C)c4)c(C(C)C)c3c2)CC1 [Example 206, 1-(4-(2-(2,6-dimethylpyridin-4-yl)-3-isopropyl-1H-indol-5-yl)piperidin-1-yl)propan-1-one]",41900,5.4,100,–,–,–,–,–
"CCc1c(-c2ccnc(C)c2)[nH]c2ccc(C3CCN(C(=O)C4CCNC4)CC3)cc12 (stereo not drawn) [Example 633, (4-(3-ethyl-2-(2-methylpyridin-4-yl)-1H-indol-5-yl)piperidin-1-yl)(pyrrolidin-3-yl)methanone]",311,39,83.3,–,–,–,–,–
"Cc1cc(-c2[nH]c3ccc(C4CCN(CC(=O)NCCC(C)(C)C)CC4)cc3c2C(C)C)cc(C)n1 [Example 236, N-(3,3-dimethylbutyl)-2-(4-(2-(2,6-dimethylpyridin-4-yl)-3-isopropyl-1H-indol-5-yl)piperidin-1-yl)acetamide]",2090,46.5,67.2,–,–,–,–,–
"Cc1cc(-c2[nH]c3ccc(C4CCN(C(=O)C5CCOC5)CC4)cc3c2C(C)C)cc(C)n1 (stereo not drawn) [Example 199, (4-(2-(2,6-dimethylpyridin-4-yl)-3-isopropyl-1H-indol-5-yl)piperidin-1-yl)(tetrahydrofuran-3-yl)methanone]",46600,3.6,86.1,–,–,–,–,–
"CNCC(=O)N1CCC(c2ccc3[nH]c(-c4ccnc(C)c4)c(C(C)C)c3c2)CC1 [Example 510, 1-(4-(3-isopropyl-2-(2-methylpyridin-4-yl)-1H-indol-5-yl)piperidin-1-yl)-2-(methylamino)ethan-1-one]",695,8.8,8.6,–,–,–,–,–
"Cc1cc(-c2[nH]c3ccc(C4CCN(C(=O)[C@H]5C[C@H]6CC[C@@H](C5)N6)CC4)cc3c2C(C)C)ccn1 [Example 580, ((1R,3r,5S)-8-azabicyclo[3.2.1]octan-3-yl)(4-(3-isopropyl-2-(2-methylpyridin-4-yl)-1H-indol-5-yl)piperidin-1-yl)methanone]",508,67.2,53.7,–,–,–,–,–
"Cc1cc(-c2[nH]c3ccc(C4CCN(C(=O)C5CC(=O)N(C)C5)CC4)cc3c2C(C)C)cc(F)n1 (stereo not drawn) [Example 502, 4-(4-(2-(2-fluoro-6-methylpyridin-4-yl)-3-isopropyl-1H-indol-5-yl)piperidine-1-carbonyl)-1-methylpyrrolidin-2-one]",24700,28.4,156,–,–,–,–,–
"Cc1cc(-c2[nH]c3ccc(C4CCN(CCC(F)(F)F)CC4)cc3c2C(C)C)cc(C)n1 [Example 677, 2-(2,6-dimethylpyridin-4-yl)-3-isopropyl-5-(1-(3,3,3-trifluoropropyl)piperidin-4-yl)-1H-indole]",1690,3.4,6.7,–,–,–,–,–
"CCOc1cc(-c2[nH]c3ccc(C4CCN(C5CCN(CC(C)C)CC5)CC4)cc3c2CC)ccn1 [Example 768, 2-(2-ethoxypyridin-4-yl)-3-ethyl-5-(1′-isobutyl-[1,4′-bipiperidin]-4-yl)-1H-indole]",1280,7220,1190,–,–,–,–,–
"Cc1cc(-c2[nH]c3ccc(C4CCN(C(=O)C5CC(=O)N(C)C5)CC4)cc3c2C(C)C)cc(C2CC2)n1 (stereo not drawn) [Example 507, 4-(4-(2-(2-cyclopropyl-6-methylpyridin-4-yl)-3-isopropyl-1H-indol-5-yl)piperidine-1-carbonyl)-1-methylpyrrolidin-2-one]",19000,52,346,–,–,–,–,–
"Cc1cc(-c2[nH]c3ccc(C4CCN(Cc5cncs5)CC4)cc3c2C(C)C)cc(C)n1 [Example 444, 5-((4-(2-(2,6-dimethylpyridin-4-yl)-3-isopropyl-1H-indol-5-yl)piperidin-1-yl)methyl)thiazole]",617,3.3,1.6,–,–,–,–,–
"Cc1cc(-c2[nH]c3ccc(C4CCN(C(=O)Cn5ncnn5)CC4)cc3c2C(C)C)cc(C)n1 [Example 155, 1-(4-(2-(2,6-dimethylpyridin-4-yl)-3-isopropyl-1H-indol-5-yl)piperidin-1-yl)-2-(2H-tetrazol-2-yl) ethan-1-one]",26000,2.7,31.7,–,–,–,–,–
"Cc1nccc(-c2[nH]c3ccc(C4CCNCC4)cc3c2C(C)C)c1Cl [Example 44, 2-(3-chloro-2-methylpyridin-4-yl)-3-isopropyl-5-(piperidin-4-yl)-1H-indole]",1640,13.9,14.4,–,–,–,–,–
"Cc1cc(-c2[nH]c3ccc(C4CCN(C(=O)Cn5cncn5)CC4)cc3c2C(C)C)cc(C)n1 [Example 170, 1-(4-(2-(2,6-dimethylpyridin-4-yl)-3-isopropyl-1H-indol-5-yl)piperidin-1-yl)-2-(1H-1,2,4-triazol-1-yl)ethan-1-one]",> 50000,12.1,206,–,–,–,–,–
"Cc1cc(-c2[nH]c3ccc(C4CCN(C(=O)CNCCC(C)(C)C)CC4)cc3c2C(C)C)cc(C)n1 [Example 347, 2-((3,3-dimethylbutyl)amino)-1-(4-(2-(2,6-dimethylpyridin-4-yl)-3-isopropyl-1H-indol-5-yl)piperidin-1-yl)ethan-1-one]",752,17.4,47.9,–,–,–,–,–
